Experimental findings from patent publication US9765070B2, “Substituted oxopyridine derivatives” (Bayer Pharma Aktiengesellschaft, priority 2013, dated 2017) are described below.

Each structure is given as a SMILES string.

One test addresses human plasma kallikrein (Homo sapiens (Human), UniProt P03952). As to the kind of experiment: Determination of the plasma kallikrein activity (fluorogenic substrate H-Pro-Phe-Arg-AMC). Format: biochemical. The note with it: plasma kallikrein from Kordia 0.6 nM, 15 min preincubation, 30 min at 22° C., fluorescence. The method, then:
a.5) Determination of the Plasma Kallikrein Activity
To determine the plasma kallikrein inhibition of the substances according to the invention, a biochemical test system is used which utilizes the reaction of a peptidic plasma kallikrein substrate to determine the enzymatic activity of human plasma kallikrein. Here, plasma kallikrein cleaves from the peptic plasma kallikrein substrate the C-terminal aminomethylcoumarin (AMC), the fluorescence of which is measured. The determinations are carried out in microtitre plates.
In each case 1 μl of the diluted substance solutions is placed into the wells of white microtitre plates from Greiner (384 wells). 20 μl of assay buffer (50 mM Tris/HCl pH 7.4; 100 mM sodium chloride solution; 5 mM of calcium chloride solution; 0.1% of bovine serum albumin) and 20 μl of plasma kallikrein from Kordia (0.6 nM in assay buffer) are then added successively. After 15 min of incubation, the enzyme reaction is started by addition of 20 μl of the substrate H-Pro-Phe-Arg-AMC dissolved in assay buffer (10 μM in assay buffer) from Bachem, the mixture is incubated at room temperature (22° C.) for 30 min and fluorescence is then measured (excitation: 360 nm, emission: 460 nm). The measured emissions of the test batches with test substance are compared to those of control batches without test substance (only dimethyl sulphoxide instead of test substance in dimethyl sulphoxide), and IC50 values are calculated from the concentration/activity relationships.

Another test concerns the target human factor XIa (Homo sapiens (Human), UniProt P03951). As to the kind of experiment: Measurement of FXIa inhibition (fluorogenic peptide substrate Boc-Glu(OBzl)-Ala-Arg-AMC). It counts as biochemical. The note with it: factor XIa from Kordia 0.45 nM, 15 min preincubation, 30 min at 22° C., fluorescence. As for the experimental part: a.1) Measurement of FXIa Inhibition
The factor XIa inhibition of the substances according to the invention is determined using a biochemical test system which utilizes the reaction of a peptidic factor XIa substrate to determine the enzymatic activity of human factor XIa. Here, factor XIa cleaves from the peptic factor XIa substrate the C-terminal aminomethylcoumarin (AMC), the fluorescence of which is measured. The determinations are carried out in microtitre plates.
In each case 1 μl of the diluted substance solutions is placed into the wells of white microtitre plates from Greiner (384 wells). 20 μl of assay buffer (50 mM of Tris/HCl pH 7.4; 100 mM of sodium chloride; 5 mM of calcium chloride; 0.1% of bovine serum albumin) and 20 μl of factor XIa from Kordia (0.45 nM in assay buffer) are then added successively. After 15 min of incubation, the enzyme reaction is started by addition of 20 μl of the factor XIa substrate Boc-Glu(OBzl)-Ala-Arg-AMC dissolved in assay buffer (10 μM in assay buffer) from Bachem, the mixture is incubated at room temperature (22° C.) for 30 min and fluorescence is then measured (excitation: 360 nm, emission: 460 nm). The measured emissions of the test batches with test substance are compared to those of control batches without test substance (only dimethyl sulphoxide instead of test substance in dimethyl sulphoxide), and IC50 values are calculated from the concentration/activity relationships.

Chain of human plasma kallikrein (P03952 391-638): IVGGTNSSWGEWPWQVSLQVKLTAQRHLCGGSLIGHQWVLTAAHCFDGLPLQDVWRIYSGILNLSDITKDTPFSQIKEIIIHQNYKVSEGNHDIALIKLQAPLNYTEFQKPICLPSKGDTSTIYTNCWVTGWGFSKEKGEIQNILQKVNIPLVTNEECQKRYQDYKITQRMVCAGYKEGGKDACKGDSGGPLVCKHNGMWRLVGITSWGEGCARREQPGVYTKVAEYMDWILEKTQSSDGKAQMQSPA
Chain of human plasma kallikrein (P03952 20-390 partner): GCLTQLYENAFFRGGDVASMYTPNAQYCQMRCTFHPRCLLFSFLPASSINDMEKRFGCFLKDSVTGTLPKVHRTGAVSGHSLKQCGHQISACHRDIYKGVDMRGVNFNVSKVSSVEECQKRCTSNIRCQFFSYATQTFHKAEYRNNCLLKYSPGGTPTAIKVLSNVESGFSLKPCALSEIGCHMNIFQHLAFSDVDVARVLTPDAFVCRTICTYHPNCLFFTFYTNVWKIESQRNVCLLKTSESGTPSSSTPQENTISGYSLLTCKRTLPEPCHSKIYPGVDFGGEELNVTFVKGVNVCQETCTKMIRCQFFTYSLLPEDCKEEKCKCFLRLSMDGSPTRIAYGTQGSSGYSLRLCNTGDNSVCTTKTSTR
Chain of human factor XIa (P03951 388-625): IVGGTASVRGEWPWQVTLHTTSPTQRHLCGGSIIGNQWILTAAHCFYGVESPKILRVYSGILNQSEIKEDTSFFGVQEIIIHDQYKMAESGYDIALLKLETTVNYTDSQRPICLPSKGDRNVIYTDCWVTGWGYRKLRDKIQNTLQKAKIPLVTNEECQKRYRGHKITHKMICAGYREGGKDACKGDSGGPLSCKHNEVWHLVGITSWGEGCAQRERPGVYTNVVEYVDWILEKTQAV
Chain of human factor XIa (P03951 19-387 partner): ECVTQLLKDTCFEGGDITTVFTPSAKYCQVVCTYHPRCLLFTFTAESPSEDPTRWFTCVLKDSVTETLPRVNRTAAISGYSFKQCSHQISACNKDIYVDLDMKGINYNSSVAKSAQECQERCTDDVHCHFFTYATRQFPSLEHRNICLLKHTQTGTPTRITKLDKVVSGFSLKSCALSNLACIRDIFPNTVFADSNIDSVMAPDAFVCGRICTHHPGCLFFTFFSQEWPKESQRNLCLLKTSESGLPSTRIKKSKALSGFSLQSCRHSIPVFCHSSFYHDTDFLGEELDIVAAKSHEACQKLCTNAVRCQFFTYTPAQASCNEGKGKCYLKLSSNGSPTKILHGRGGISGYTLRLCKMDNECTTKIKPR

As usually defined, the IC50 is the point on the concentration scale where inhibition reaches its midpoint. A lower IC50 goes with greater potency in that assay. As to `N#Cc1ccc(Cl)cc1-c1cc(=O)n(C(Cc2cnco2)C(=O)Nc2ccc3nccn3c2)cc1Cl` (racemic) [Example 30, 2-[5-Chloro-4-(5-chloro-2-cyanophenyl)-2-oxopyridin-1(2H)-yl]-N-(imidazo[1,2-a]pyridin-6-yl)-3-(1,3-oxazol-5-yl)propanamide (racemate)], the figures for the IC50 on human plasma kallikrein and on human factor XIa were 120 nM and 96 nM, respectively.
Take `N#Cc1ccc(Cl)cc1-c1cc(=O)n(C(Cc2cnco2)C(=O)Nc2ccc3nccn3c2)cc1OC(F)F` (racemic) [Example 31, 2-[4-(5-Chloro-2-cyanophenyl)-5-(difluoromethoxy)-2-oxopyridin-1(2H)-yl]-N-(imidazo[1,2-a]pyridin-6-yl)-3-(1,3-oxazol-5-yl)propanamide (racemate)]: the IC50 against human plasma kallikrein was 970 nM; against human factor XIa it was 500 nM.
Regarding `COc1cn(C(Cc2cocn2)C(=O)Nc2ccc3nccn3c2)c(=O)cc1-c1cc(Cl)ccc1C#N` (racemic) [Example 32, 2-[4-(5-Chloro-2-cyanophenyl)-5-methoxy-2-oxopyridin-1(2H)-yl]-N-(imidazo[1,2-a]pyridin-6-yl)-3-(1,3-oxazol-4-yl)propanamide (racemate)], at human factor XIa, the IC50 was determined as 92 nM.
`N#Cc1ccc(Cl)cc1-c1cc(=O)n(C(Cc2cocn2)C(=O)Nc2ccc3nccn3c2)cc1Cl` (racemic) [Example 33, 2-[5-Chloro-4-(5-chloro-2-cyanophenyl)-2-oxopyridin-1(2H)-yl]-N-(imidazo[1,2-a]pyridin-6-yl)-3-(1,3-oxazol-4-yl)propanamide (racemate)]: the IC50 against human plasma kallikrein amounted to 250 nM; on human factor XIa, 310 nM.
With `COCCC(C(=O)Nc1ccn2nccc2c1)n1cc(OC)c(-c2cc(Cl)ccc2C#N)cc1=O` (single isomer, unassigned; enantiomer 1) [Example 36, 2-[4-(5-Chloro-2-cyanophenyl)-5-methoxy-2-oxopyridin-1(2H)-yl]-4-methoxy-N-(pyrazolo[1,5-a]pyridin-5-yl)butanamide (enantiomer 1)], it took 3.2 nM to reach half-maximal inhibition on human plasma kallikrein (IC50).
Regarding `COc1cn(CC(=O)Nc2ccc3nc(C(=O)O)cn3c2)c(=O)cc1-c1cc(Cl)ccc1C#N` [Example 6, 6-({[4-(5-Chloro-2-cyanophenyl)-5-methoxy-2-oxopyridin-1(2H)-yl]acetyl}amino)imidazo[1,2-a]pyridine-2-carboxylic acid], on human plasma kallikrein, the IC50 turned out to be 61 nM.
Compound `O=C(Cn1cc(Cl)c(-c2cc(Cl)ccc2OC(F)F)cc1=O)Nc1ccc2nc(C(=O)O)cn2c1` [Example 8, 6-[({5-Chloro-4-[5-chloro-2-(difluoromethoxy)phenyl]-2-oxopyridin-1(2H)-yl}acetyl)amino]imidazo[1,2-a]pyridine-2-carboxylic acid] registered an IC50 at human factor XIa of 380 nM.
